Measurements reported in ChEMBL document CHEMBL3046584, “Synthesis, biological activity and docking study of some new isatin Schiff base derivatives” (2012).

Legend:
Type in all cases: functional
Raji = test: Cytotoxicity against Homo sapiens (human) Raji cells assessed as cell viability after 72 hr by MTT assay
[1] = Cytotoxicity against Homo sapiens (human) LS180 cells assessed as cell viability after 72 hr by MTT assay; settings: LS180, 72 h
HeLa = test: Cytotoxicity against Homo sapiens (human) HeLa cells assessed as cell viability after […] by MTT assay

Row | SMILES | IC15 (Raji) [µM] | IC30 (Raji) [µM] | IC15 [1] [µM] | IC30 [1] [µM] | IC15 (HeLa) [µM] | IC30 (HeLa) [µM]
1 | Cc1ccccc1N=C1C(=O)Nc2ccccc21 | 64.8 | > 100 | > 100 | > 100 | 12.3 | 52.6
2 | O=C1Nc2ccccc2/C1=N/Nc1ccc([N+](=O)[O-])cc1 | 17 | > 100 | 5.2 | 21.8 | 3 | 12.2
3 | O=C1Nc2ccccc2/C1=N\c1ccc(Cl)cc1 | 35.4 | 88.1 | > 100 | > 100 | 15.4 | 80.2
4 | O=C1Nc2ccccc2/C1=N/c1cccc2ccccc12 | 48.8 | > 100 | 20.8 | > 100 | 15.8 | 55.9
5 | Cc1nc(Cl)cc(/N=C2\C(=O)Nc3ccccc32)n1 | > 100 | > 100 | > 100 | > 100 | 17.4 | > 100
6 | O=C1Nc2ccccc2/C1=N/c1ccc(Cl)cn1 | > 100 | > 100 | > 100 | > 100 | 21.6 | 65.1
7 | O=C1Nc2ccccc2/C1=N/c1nc2ccccc2[nH]1 | 15.6 | > 100 | > 100 | > 100 | 43.2 | > 100
8 | O=C1Nc2ccccc2/C1=N/c1nc(Cl)cs1 | 57.3 | > 100 | > 100 | > 100 | 3.2 | 35.9
9 | Cc1conc1/N=C1\C(=O)Nc2ccccc21 | 30.1 | > 100 | > 100 | > 100 | 49.6 | > 100
